The record followed here is ChEMBL document CHEMBL1125524, “Adenosine A1 antagonists. 2. Structure-activity relationships on diuretic activities and protective effects against acute renal failure” (J Med Chem, 1992).

pKi: −log10 of the molar value.

For assay [1], the system named is Rattus norvegicus. The assay is described as follows: Urea nitrogen concentration measured after intraperitoneal administration of 0.01 mg/kg of compound to rats(vehicle 130.6+/-4.12). Format: functional.
In assay [2] the test system is Rattus norvegicus. Briefly: Percent inhibition of serum creatinine by the compound given as ratio of Cr value in treated to vehicle treated ones after intraperitoneal administration of 0.1 mg/kg of compound to rats(vehicle 3.92+/-0.23). Type of assay: functional. Particulars: ip.
The test system of assay [3] is Rattus norvegicus. Briefly: Ratio of sodium ion/potassium ion concentration in treated rats to that in control rats, at a peroral dose of 0.4 mg/Kg. Type of assay: functional.
Assay [4] deals with Rattus norvegicus. Briefly: Oral diuretic activity was measured after oral administration of 1.6 mg/kg to rats(control volume is 0.97+/-0.05). Type of assay: functional, Urine.
For assay [5], the system named is Rattus norvegicus. Briefly: Percent inhibition of Urea nitrogen by the compound given as ratio of UN value in treated to vehicle treated ones after intraperitoneal administration of 1 mg/kg of compound to rats(vehicle 151.5+/-7.4). Type of assay: functional. Particulars: ip.
Assay [6] relates to Rattus norvegicus. The assay is described as follows: Urea nitrogen concentration measured after intraperitoneal administration of 0.1 mg/kg of compound to rats(vehicle 141.3+/-8.3). Type of assay: functional.
In the next assay the target is Adenosine A2 receptor (Rattus norvegicus, UniProt P29276+P30543).
In assay [7] the test system is Rattus norvegicus. Briefly: Ratio of urinary excretion value (Na+ concentration) in treated rats to that in control rats, at a peroral dose of 1.6 mg/Kg. Format: functional, Urine.
Assay [8] has as its system Rattus norvegicus. Briefly: Serum creatinine concentration measured after intraperitoneal administration of 0.01 mg/kg of compound to rats(vehicle 4.50+/-0.24). Format: functional.
Assay [9] has as its system Rattus norvegicus. The assay is described as follows: Ratio of urinary excretion value (urinary volume) in treated rats to that in control rats, at a peroral dose of 1.6 mg/Kg. Type of assay: functional, Urine.
The subject of assay [10] is Rattus norvegicus. The assay is described as follows: Ratio of urinary excretion value (Na+ concentration) in treated rats to that in control rats, at a peroral dose of 0.4 mg/Kg. Format: functional, Urine.
Assay [11] concerns Rattus norvegicus. The assay is described as follows: Percent inhibition of Urea nitrogen by the compound given as ratio of UN value in treated to vehicle treated ones after intraperitoneal administration of 0.01 mg/kg of compound to rats(vehicle 130.6+/-4.12). Particulars: ip. Format: functional.
Assay [12] deals with Rattus norvegicus. The assay is described as follows: Oral diuretic activity was measured after oral administration of 0.4 mg/kg to rats(control volume is 1.72+/-0.31). Type of assay: functional, Urine.
Assay [13] concerns Rattus norvegicus. The assay is described as follows: Ratio of urinary excretion value (urinary volume) in treated rats to that in control rats, at a peroral dose of 0.4 mg/Kg. Type of assay: functional, Urine.
Assay [14] deals with Rattus norvegicus. Briefly: Serum creatinine concentration measured after intraperitoneal administration of 1 mg/kg of compound to rats(vehicle 4.82+/-0.17). Type of assay: functional.
Assay [15] deals with Rattus norvegicus. The assay is described as follows: Effect on urinary excretion potassium and sodium after oral administration of 1.6 mg/kg to rats(potassium and sodium excretion in control rat is 0.169+/-0.012). Type of assay: functional, Urine.
In assay [16] the test system is Rattus norvegicus. The assay is described as follows: Percent inhibition of serum creatinine by the compound given as ratio of Cr value in treated to vehicle treated ones after intraperitoneal administration of 0.01 mg/kg of compound to rats(vehicle 4.50+/-0.24). Format: functional. Particulars: ip.
The subject of assay [17] is Rattus norvegicus. Briefly: Urea nitrogen concentration measured after intraperitoneal administration of 1 mg/kg of compound to rats(vehicle 151.5+/-7.4). Format: functional.
The subject of assay [18] is Rattus norvegicus. The assay is described as follows: Serum creatinine concentration measured after intraperitoneal administration of 0.1 mg/kg of compound to rats(vehicle 3.92+/-0.23). Type of assay: functional.
Assay [19] has as its system Rattus norvegicus. The assay is described as follows: Percent inhibition of serum creatinine by the compound given as ratio of Cr value in treated to vehicle treated ones after intraperitoneal administration of 1 mg/kg of compound to rats(vehicle 4.82+/-0.17). Format: functional. Particulars: ip.
In assay [20] the test system is Rattus norvegicus. The assay is described as follows: Ratio of sodium ion/potassium ion concentration in treated rats to that in control rats, at a peroral dose of 1.6 mg/Kg. Format: functional.
The subject of assay [21] is Rattus norvegicus. The assay is described as follows: Effect on urinary excretion potassium and sodium after oral administration of 0.4 mg/kg to rats(potassium and sodium excretion in control rat is 0.267+/-0.044). Format: functional, Urine.
Assay [22] concerns Rattus norvegicus. The assay is described as follows: Percent inhibition of Urea nitrogen by the compound given as ratio of UN value in treated to vehicle treated ones after intraperitoneal administration of 0.1 mg/kg of compound to rats(vehicle 141.3+/-8.3). Format: functional. Particulars: ip.
In assay [23] the test system is Rattus norvegicus. Briefly: Percent inhibition of Urea nitrogen by the compound given as ratio of UN value in treated to vehicle treated ones after intraperitoneal administration of 1 mg/kg of compound to rats(vehicle 154.5+/-7). Type of assay: functional. Particulars: ip.
The test system of assay [24] is Rattus norvegicus. The assay is described as follows: Percent inhibition of serum creatinine by the compound given as ratio of Cr value in treated to vehicle treated ones after intraperitoneal administration of 1 mg/kg of compound to rats(vehicle 4.91+/-0.10). Format: functional. Particulars: ip.
Assay [25] has as its system Rattus norvegicus. The assay is described as follows: Oral diuretic activity was measured after oral administration of 3.1 mg/kg to rats(control volume is 1.18+/-0.11). Type of assay: functional, Urine.
The test system of assay [26] is Rattus norvegicus. Briefly: Ratio of urinary excretion value (Na+ concentration) in treated rats to that in control rats, at a peroral dose of 25 mg/Kg. Format: functional, Urine.
In assay [27] the test system is Rattus norvegicus. The assay is described as follows: Urea nitrogen concentration measured after intraperitoneal administration of 10 mg/kg of compound to rats(vehicle 146.7+/-10.1). Format: functional.
Assay [28] relates to Rattus norvegicus. The assay is described as follows: Percent inhibition of Urea nitrogen by the compound given as ratio of UN value in treated to vehicle treated ones after intraperitoneal administration of 10 mg/kg of compound to rats(vehicle 146.7+/-10.1). Format: functional. Particulars: ip.
Assay [29] has as its system Rattus norvegicus. Briefly: Oral diuretic activity was measured after oral administration of 25 mg/kg to rats(control volume is 0.69+/-0.03). Format: functional, Urine.
The test system of assay [30] is Rattus norvegicus. Briefly: Ratio of urinary excretion value (urinary volume) in treated rats to that in control rats, at a peroral dose of 25 mg/Kg. Type of assay: functional, Urine.
Assay [31] deals with Rattus norvegicus. The assay is described as follows: Effect on urinary excretion potassium and sodium after oral administration of 1.6 mg/kg to rats(potassium and sodium excretion in control rat is 0.158+/-0.034). Format: functional, Urine.
Assay [32] deals with Rattus norvegicus. Briefly: Effect on urinary excretion potassium and sodium after oral administration of 25 mg/kg to rats(potassium and sodium excretion in control rat is 0.079+/-0.007). Type of assay: functional, Urine.
Assay [33] relates to Rattus norvegicus. Briefly: Ratio of urinary excretion value (Na+ concentration) in treated rats to that in control rats, at a peroral dose of 3.1 mg/Kg. Type of assay: functional, Urine.
Assay [34] has as its system Rattus norvegicus. The assay is described as follows: Oral diuretic activity was measured after oral administration of 1.6 mg/kg to rats(control volume is 1.12+/-0.33). Type of assay: functional, Urine.
For assay [35], the system named is Rattus norvegicus. Briefly: Serum creatinine concentration measured after intraperitoneal administration of 1 mg/kg of compound to rats(vehicle 4.91+/-0.10). Format: functional.
The target of the next assay is T1, Adenosine receptor A1 (Cavia porcellus, UniProt P47745).
T1 sequence (P47745 whole entry): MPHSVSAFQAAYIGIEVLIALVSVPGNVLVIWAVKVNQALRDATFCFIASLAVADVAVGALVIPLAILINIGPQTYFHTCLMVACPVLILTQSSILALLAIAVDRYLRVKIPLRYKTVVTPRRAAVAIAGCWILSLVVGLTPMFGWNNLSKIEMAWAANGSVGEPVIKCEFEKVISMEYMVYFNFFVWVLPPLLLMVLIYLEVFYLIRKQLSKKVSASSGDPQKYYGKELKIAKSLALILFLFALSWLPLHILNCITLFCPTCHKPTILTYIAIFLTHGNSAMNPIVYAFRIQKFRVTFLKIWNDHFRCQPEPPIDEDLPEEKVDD

The test system of assay [36] is Rattus norvegicus. Briefly: Effect on urinary excretion potassium and sodium after oral administration of 3.1 mg/kg to rats(potassium and sodium excretion in control rat is 0.227+/-0.027). Format: functional, Urine.
Assay [37] deals with Rattus norvegicus. The assay is described as follows: Ratio of urinary excretion value (urinary volume) in treated rats to that in control rats, at a peroral dose of 3.1 mg/Kg. Type of assay: functional, Urine.
Assay [38] deals with Rattus norvegicus. Briefly: Ratio of sodium ion/potassium ion concentration in treated rats to that in control rats, at a peroral dose of 3.1 mg/Kg. Type of assay: functional.
Assay [39] deals with Rattus norvegicus. Briefly: Serum creatinine concentration measured after intraperitoneal administration of 10 mg/kg of compound to rats(vehicle 4.26+/-0.39). Type of assay: functional.
Assay [40] deals with Rattus norvegicus. The assay is described as follows: Urea nitrogen concentration measured after intraperitoneal administration of 1 mg/kg of compound to rats(vehicle 154.5+/-7). Format: functional.
Assay [41] deals with Rattus norvegicus. Briefly: Percent inhibition of serum creatinine by the compound given as ratio of Cr value in treated to vehicle treated ones after intraperitoneal administration of 10 mg/kg of compound to rats(vehicle 4.26+/-0.39). Type of assay: functional. Particulars: ip.

Description for Adenosine receptor A1: Binding affinity against adenosine A1 receptor in guinea pig forebrain membranes using N6-[3H]cyclohexyladenosine as radioligand

For `CC(C)Cn1c(=O)n(C)c(=O)c2[nH]c(C34CC5CC(CC3C5)C4)nc21`, the figures for the UN in the assay on Rattus norvegicus [1], in the assay on Rattus norvegicus [6] and with Rattus norvegicus [17] were 115.5 mg/dL, 70.9 mg/dL and 74 mg/dL, respectively. For the same compound, the results for the inhibition in vivo at 0.1 mg/kg in the assay with Rattus norvegicus [2] and in the assay on Rattus norvegicus [22] were 48% and 50%, respectively. Besides, the “Na+/K+” value in the assay with Rattus norvegicus [3] turned out to be 1.37; with Rattus norvegicus [20] it was 1.73. Further, the Urine volume is listed as 2.43 ml 6hr-1 100g-1 in the assay on Rattus norvegicus [4] and 2.41 ml 6hr-1 100g-1 with Rattus norvegicus [12]. Besides, the inhibition in vivo at 1 mg/kg in the assay on Rattus norvegicus [5] came out at 51%; with Rattus norvegicus [19], 42%. At Adenosine A2 receptor, the pKi is 6.07. Further, the T/C with Rattus norvegicus [7] worked out at 2.43; in the assay on Rattus norvegicus [9] it was 2.51; in the assay on Rattus norvegicus [10], 1.38; in the assay with Rattus norvegicus [13] it was 1.4. For the same compound, the Cr with Rattus norvegicus [8] was determined as 3.38 mg/dL; in the assay with Rattus norvegicus [14] it was 2.76 mg/dL; with Rattus norvegicus [18] it was 2.04 mg/dL. For the same compound, the results for the inhibition in vivo at 0.01 mg/kg in the assay with Rattus norvegicus [11] and with Rattus norvegicus [16] were 12% and 25%, respectively. In addition, the Na in the assay with Rattus norvegicus [15] amounted to 0.409 m equiv 6hr-1 100g-1; with Rattus norvegicus [21] it was 0.367 m equiv 6hr-1 100g-1.

As for `CCCn1c(=O)c2nc(C34CC5CC(CC(C5)C3)C4)[nH]c2n(CCC)c1=O`, the inhibition in vivo at 1 mg/kg with Rattus norvegicus [23] turned out to be 25%; in the assay with Rattus norvegicus [24], 30%. Further, the figures for the Urine volume with Rattus norvegicus [25], in the assay with Rattus norvegicus [29] and in the assay with Rattus norvegicus [34] were 1.67 ml 6hr-1 100g-1, 1.58 ml 6hr-1 100g-1 and 1.39 ml 6hr-1 100g-1, respectively. Also, the T/C in the assay with Rattus norvegicus [26] was 2.86; with Rattus norvegicus [30], 2.29; in the assay on Rattus norvegicus [7], 1.44; in the assay on Rattus norvegicus [33] it was 1.32; in the assay with Rattus norvegicus [9], 1.24; in the assay with Rattus norvegicus [37], 1.42. Besides, the UN was found to be 77.5 mg/dL with Rattus norvegicus [27] and 118.8 mg/dL with Rattus norvegicus [40]. In addition, the values for the inhibition in vivo at 10 mg/kg with Rattus norvegicus [28] and in the assay on Rattus norvegicus [41] were 47% and 55%, respectively. Further, the Na came to 0.227 m equiv 6hr-1 100g-1 with Rattus norvegicus [31], 0.226 m equiv 6hr-1 100g-1 with Rattus norvegicus [32] and 0.299 m equiv 6hr-1 100g-1 in the assay with Rattus norvegicus [36]. Also, the Cr in the assay with Rattus norvegicus [35] was found to be 3.45 mg/dL; with Rattus norvegicus [39] it was 1.91 mg/dL. In addition, the pKi at Adenosine receptor A1 is 7.89. Also, the “Na+/K+” value with Rattus norvegicus [20] was 1.22; in the assay on Rattus norvegicus [38] it was 1.23.

Usually inhibition in vivo stands for how much of the control response was suppressed. As usually defined, the pKi is the negative decadic logarithm of the Ki, by convention in mol/L. Higher therefore signals a low Ki.
